Measurements taken from patent US7294638B2, “Treatment of ADHD” (H. Lundbeck A/S, priority 2001, dated 2007).

Legend:
dopamine D4 receptors = target: T1, dopamine D4 receptors (Homo sapiens, UniProt P21917); conditions: data in WO 98/28293; cited from earlier work
T1 sequence (P21917 1-419): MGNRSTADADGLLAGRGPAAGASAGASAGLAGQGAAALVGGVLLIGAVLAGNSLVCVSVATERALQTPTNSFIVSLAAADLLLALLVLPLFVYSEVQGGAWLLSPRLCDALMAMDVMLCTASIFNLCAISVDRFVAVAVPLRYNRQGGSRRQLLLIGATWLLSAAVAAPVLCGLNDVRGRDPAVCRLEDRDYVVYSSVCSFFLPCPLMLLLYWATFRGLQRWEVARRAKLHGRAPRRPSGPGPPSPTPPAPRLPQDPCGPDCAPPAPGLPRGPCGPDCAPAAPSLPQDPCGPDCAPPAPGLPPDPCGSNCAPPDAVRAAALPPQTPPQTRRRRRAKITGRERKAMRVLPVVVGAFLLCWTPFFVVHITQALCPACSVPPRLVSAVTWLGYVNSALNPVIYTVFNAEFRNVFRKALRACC

DAT knock-out (KO) mice [1] = conditions: Gainetdinov et al. Science 1999; cited from earlier work
DAT knock-out (KO) mice [2] = assay: DAT-KO mice model of ADHD (hyperactivity); type: in vivo; conditions: animal model of ADHD
Excerpt: A very useful animal model of ADHD is the DAT knock-out (KO) mice (Gainetdinov et al. Science 1999, 283, 397-401).
The compound, (S)-(+)-3-[1-[2-(1-acetyl-2,3-dihydro-1H-indol-3-yl)ethyl]-1,2,3,6-tetrahydropyridin-4-yl]-6-chloro-1H-indole, has been tested in the DAT-KO mice, an animal model which have many behaviour patterns and responses to psychostimulants in common with individuals with ADHD (Gainetdinov et al. Science 1999, 283, 397-401).

[3] = clinical; Barrickman et al. 1991; cited from earlier work

SMILES | reversal of hyperactivity in DAT-KO mice (DAT knock-out (KO) mice [1]) | other results
CC(=O)N1CC(CCN2CC=C(c3c[nH]c4cc(Cl)ccc34)CC2)c2ccccc21 (racemic) [3-[1-[2-(1-acetyl-2,3-dihydro-1H-indol-3-yl)ethyl]-1,2,3,6-tetrahydropyridin-4-yl]-6-chloro-1H-indole] |  | dopamine D4 ligand potency (dopamine D4 receptors): potent dopamine D4 ligand
N[C@@H](Cc1c[nH]c2ccc(O)cc12)C(=O)O [5-hydroxytryptophan] | counteract the hyperactivity | 
CC(=O)N1C[C@@H](CCN2CC=C(c3c[nH]c4cc(Cl)ccc34)CC2)c2ccccc21 [(S)-(+)-3-[1-[2-(1-acetyl-2,3-dihydro-1H-indol-3-yl)ethyl]-1,2,3,6-tetrahydropyridin-4-yl]-6-chloro-1H-indole] |  | effect in the DAT-KO mice model (DAT knock-out (KO) mice [2]): have effect in this model
N[C@@H](Cc1c[nH]c2ccccc12)C(=O)O [L-tryptophan] | counteract the hyperactivity | 
CC(N)Cc1ccccc1 (stereo not drawn) [amphetamine] | can be reversed | 
CNCCC(Oc1ccc(C(F)(F)F)cc1)c1ccccc1 (stereo not drawn) [fluoxetine] | counteract the hyperactivity | reducing symptoms of ADHD [3]: effective in reducing symptoms of ADHD
COC(=O)C(c1ccccc1)C1CCCCN1 (stereo not drawn) [methylphenidate] | can be reversed | 
c1ccc2nc(N3CCNCC3)ccc2c1 [quipazine] | counteract the hyperactivity | 
